Data as given in ChEMBL document CHEMBL5113478, “7-Azaindole, 2,7-diazaindole, and 1H-pyrazole as core structures for novel anticancer agents with potential chemosensitizing properties” (Eur J Med Chem, 2022).
Calls of active or inactive are those of the source. The calls are words filed in the database; no cut-off is given here.

Legend:
MOLT-4 [1] = assay: Antiproliferative activity against human MOLT-4 cells assessed as […] cell proliferation at 10 uM incubated for 48 hrs by WST-1 assay relative to control; type: functional
MOLT-4 [2] = assay: Antiproliferative activity against human MOLT-4 cells assessed as […] cell proliferation at 10 uM incubated for 48 hrs in presence of 2 uM of CDDP by WST-1 assay relative to control; type: functional
Jurkat [3] = assay: Antiproliferative activity against human Jurkat cells assessed as […] cell proliferation at 10 uM incubated for 48 hrs by WST-1 assay relative to control; type: functional
Jurkat [4] = assay: Antiproliferative activity against human Jurkat cells assessed as […] cell proliferation at 10 uM incubated for 48 hrs in presence of 2 uM of CDDP by WST-1 assay relative to control; type: functional
A2780 [5] = assay: Antiproliferative activity against human A2780 cells assessed as […] cell proliferation at 10 uM incubated for 48 hrs by WST-1 assay relative to control; type: functional
A2780 [6] = assay: Antiproliferative activity against human A2780 cells assessed as […] cell proliferation at 10 uM incubated for 48 hrs in presence of 2 uM of CDDP by WST-1 assay relative to control; type: functional
MCF7 [7] = assay: Antiproliferative activity against human MCF7 cells assessed as […] cell proliferation at 10 uM incubated for 48 hrs by WST-1 assay relative to control; type: functional
MCF7 [8] = assay: Antiproliferative activity against human MCF7 cells assessed as […] cell proliferation at 10 uM incubated for 48 hrs in presence of 10 uM of CDDP by WST-1 assay relative to control; type: functional
A549 [9] = assay: Antiproliferative activity against human A549 cells assessed as […] cell proliferation at 10 uM incubated for 48 hrs by WST-1 assay relative to control; type: functional
A549 [10] = assay: Antiproliferative activity against human A549 cells assessed as […] cell proliferation at 10 uM incubated for 48 hrs in presence of 15 uM of CDDP by WST-1 assay relative to control; type: functional
SAOS-2 [11] = assay: Antiproliferative activity against human SAOS-2 cells assessed as […] cell proliferation at 10 uM incubated for 48 hrs by WST-1 assay relative to control; type: functional
SAOS-2 [12] = assay: Antiproliferative activity against human SAOS-2 cells assessed as […] cell proliferation at 10 uM incubated for 48 hrs in presence of 15 uM of CDDP by WST-1 assay relative to control; type: functional
PANC-1 [13] = assay: Antiproliferative activity against human PANC-1 cells assessed as […] cell proliferation at 10 uM incubated for 48 hrs by WST-1 assay relative to control; type: functional
PANC-1 [14] = assay: Antiproliferative activity against human PANC-1 cells assessed as […] cell proliferation at 10 uM incubated for 48 hrs in presence of 15 uM of CDDP by WST-1 assay relative to control; type: functional
HT-29 [15] = assay: Antiproliferative activity against human HT-29 cells assessed as […] cell proliferation at 10 uM incubated for 48 hrs by WST-1 assay relative to control; type: functional
HT-29 [16] = assay: Antiproliferative activity against human HT-29 cells assessed as […] cell proliferation at 10 uM incubated for 48 hrs in presence of 15 uM of CDDP by WST-1 assay relative to control; type: functional
HeLa [17] = assay: Antiproliferative activity against human HeLa cells assessed as […] cell proliferation at 10 uM incubated for 48 hrs by WST-1 assay relative to control; type: functional
1321N1 [18] = assay: Cytotoxicity against human 1321N1 cells assessed as reduction in cell viability at 15 uM incubated for 48 hrs by MTT assay; type: functional, cell-based
GBM = assay: Cytotoxicity against patient-derived human GBM cells assessed as reduction in cell viability at 15 uM incubated for 48 hrs by MTT assay; type: functional
1321N1 [19] = assay: Chemo-sensitizing activity against human 1321N1 cells at 15 uM incubated for 48 hrs in presence of TMZ by MTT assay; type: functional, cell-based
HeLa [20] = assay: Antiproliferative activity against human HeLa cells assessed as […] cell proliferation at 10 uM incubated for 48 hrs in presence of 15 uM of CDDP by WST-1 assay relative to control; type: functional

Row | Compound | Activity (MOLT-4 [1]) | Activity (MOLT-4 [2]) | Activity (Jurkat [3]) | Activity (Jurkat [4]) | Activity (A2780 [5]) | Activity (A2780 [6]) | Activity (MCF7 [7]) | Activity (MCF7 [8]) | Activity (A549 [9]) | Activity (A549 [10]) | Activity (SAOS-2 [11]) | Activity (SAOS-2 [12]) | Activity (PANC-1 [13]) | Activity (PANC-1 [14]) | Cell viability relative to control (HT-29 [15]) | Activity (HT-29 [16]) | Activity (HeLa [17]) | Activity (HeLa [20]) | also measured
1 | CC(C)S(=O)(=O)c1ccc(-c2cc(C(=O)N3CCc4ccccc4C3)n[nH]2)cc1 | 82% | 57% | 82% | 57% | 82% | 57% | 82% | 57% | 82% | 57% | 82% | 57% | 82% | 57% | 82% | 57% | 82% | 57% | Activity (1321N1 [18]): Active; Activity (GBM): 50%; Activity (1321N1 [19]): Active
2 | CCN(CC)c1ccc(CNC(=O)c2c[nH]c3ncc(-c4ccc(S(=O)(=O)C(C)C)cc4)cc23)cc1 | 64% | 58% | 64% | 58% | 64% | 58% | 64% | 58% | 64% | 58% | 64% | 58% | 64% | 58% | 64% | 58% | 64% | 58% | Activity (1321N1 [18]): Active; Activity (GBM): Active
3 | CC(C)S(=O)(=O)c1ccc(-c2cc(C(=O)N3CCC(c4ccccc4)CC3)n[nH]2)cc1 | 84% | 62% | 84% | 62% | 84% | 62% | 84% | 62% | 84% | 62% | 84% | 62% | 84% | 62% | 84% | 62% | 84% | 62% | –
4 | CC(C)S(=O)(=O)c1ccc(-c2cnc3[nH]c(C(=O)NCc4ccccc4)cc3c2)cc1 | 100% | 61% | 100% | 61% | 100% | 61% | 100% | 61% | 100% | 61% | 100% | 61% | 100% | 61% | 100% | 61% | 100% | 61% | –
5 | CC(C)S(=O)(=O)c1ccc(-c2cnc3[nH]cc(C(=O)NCc4ccccc4)c3c2)cc1 | 83% | 65% | 83% | 65% | 83% | 65% | 83% | 65% | 83% | 65% | 83% | 65% | 83% | 65% | 83% | 65% | 83% | 65% | –
6 | CS(=O)(=O)c1ccc(-c2cnc3[nH]c(C(=O)N4CCC(c5ccccc5)CC4)cc3c2)cc1 | 93% | 66% | 93% | 66% | 93% | 66% | 93% | 66% | 93% | 66% | 93% | 66% | 93% | 66% | 93% | 66% | 93% | 66% | –
7 | CS(=O)(=O)c1ccc(-c2cc(C(=O)NCc3ccccc3)n[nH]2)cc1 | 95% | 63% | 95% | 63% | 95% | 63% | 95% | 63% | 95% | 63% | 95% | 63% | 95% | 63% | 95% | 63% | 95% | 63% | –
8 | CCN1CCN(C2CCN(C(=O)c3c[nH]c4ncc(-c5ccc(S(=O)(=O)C(C)C)cc5)cc34)CC2)CC1 | 100% | 62% | 100% | 62% | 100% | 62% | 100% | 62% | 100% | 62% | 100% | 62% | 100% | 62% | 100% | 62% | 100% | 62% | –
9 | CS(=O)(=O)c1ccc(-c2cnc3[nH]c(C(=O)NCc4ccccc4)cc3c2)cc1 | 100% | 72% | 100% | 72% | 100% | 72% | 100% | 72% | 100% | 72% | 100% | 72% | 100% | 72% | 100% | 72% | 100% | 72% | –
10 | CCN1CCN(C(=O)c2cc(-c3ccc(S(C)(=O)=O)cc3)[nH]n2)CC1 | 102% | 65% | 102% | 65% | 102% | 65% | 102% | 65% | 102% | 65% | 102% | 65% | 102% | 65% | 102% | 65% | 102% | 65% | –
11 | CCN(CC)c1ccc(CNC(=O)c2c[nH]c3ncc(-c4ccc(S(C)(=O)=O)cc4)cc23)cc1 | 76% | 59% | 76% | 59% | 76% | 59% | 76% | 59% | 76% | 59% | 76% | 59% | 76% | 59% | 76% | 59% | 76% | 59% | –
12 | CS(=O)(=O)c1ccc(-c2cnc3[nH]cc(C(=O)N4CCC(c5ccccc5)CC4)c3c2)cc1 | 49% | 44% | 49% | 44% | 49% | 44% | 49% | 44% | 49% | 44% | 49% | 44% | 49% | 44% | 49% | 44% | 49% | 44% | –
